Results: patent US20260008818A1, “CYCLIC PEPTIDE OR SALT THEREOF, AND USES THEREOF” (FUJIFILM Corporation, priority 2023, published 2026)
Bridge positions count the residues as written; N and C are the ends. Ends that are not written are not given here. COCH2 = acetyl group that carries the bridge

system: Recombinant Human FGFR1 alpha (IIIc) Fc Chimera Protein; test: Binding affinity of enzymatically synthesized cyclic peptide to FGFR by ELISA; details: luminescence signal at reaction concentration 10 nmol/L, SEQ ID NO: 39 standardized to 1, enzyme synthesis product
Summary of the method: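 Plate-immobilized FGFR1α(IIIc)-Fc (5 ng/well) incubated with Myc-tagged cyclic peptide 3 h at room temperature; bound peptide detected with anti-Myc antibody (2 h) and chemiluminescence. Signal is FGFR minus no-FGFR wells, normalized to SEQ ID NO: 39 at 10 nmol/L and graded A–D.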

| Evaluation result of binding affinity to FGFR | Substance |
| --- | --- |
| C (0.1 or more and less than 0.5) | 317 (HCTWERLRFLGHIAPFWVK(COCH2)R; thioether 2-19 (inferred)) [compound 317] |
| C (0.1 or more and less than 0.5) | 304 (HCSYERLQFHMHEAPFRVK(COCH2)V; thioether 2-19 (inferred)) [compound 304] |
| B (0.5 or more and less than 0.7) | 275 (WCIRRLYSPWGHVAPFWVK(COCH2)P; thioether 2-19 (inferred)) [compound 275] |
| A (0.7 or more) | 328 (HCSYERLIFHGHIAPFWVK(COCH2)V; thioether 2-19 (inferred)) [compound 328] |
| A (0.7 or more) | 323 (HCTWERLIFLGHIAPFHVK(COCH2)R; thioether 2-19 (inferred)) [compound 323] |
| A (0.7 or more) | 300 (HCSYERMQFHGHEAPFRVK(COCH2)V; thioether 2-19 (inferred)) [compound 300] |
| A (0.7 or more) | 286 (HCSYEKLQFHGHEAPFRVK(COCH2)V; thioether 2-19 (inferred)) [compound 286] |
| A (0.7 or more) | 301 (HCSYERLMFHGHEAPFRVK(COCH2)V; thioether 2-19 (inferred)) [compound 301] |
| B (0.5 or more and less than 0.7) | 347 (PCVQQISPHPWGAPFWVVTSK(COCH2)F; thioether 2-21) [compound 347] |
| B (0.5 or more and less than 0.7) | 262 (FCYQRLYFQGHIAPYWFVK(COCH2)D; thioether 2-19 (inferred)) [compound 262] |
| A (0.7 or more) | 258 (ECYHKLIFLGWEAPFWHK(COCH2)E; thioether 2-18 (inferred)) [compound 258] |
| A (0.7 or more) | 287 (HCSYERLKFHGHEAPFRVK(COCH2)V; thioether 2-19 (inferred)) [compound 287] |
| C (0.1 or more and less than 0.5) | 366 (HCQFNIHPWGAPFLVK(COCH2)E; thioether 2-16) [compound 366] |
| C (0.1 or more and less than 0.5) | 337 (ACLPFLRIIIAGHWAPFLAK(COCH2)Q; thioether 2-20 (inferred)) [compound 337] |
| B (0.5 or more and less than 0.7) | 324 (HCTWERLIFLGHIAPFWVK(COCH2)V; thioether 2-19 (inferred)) [compound 324] |
| C (0.1 or more and less than 0.5) | 344 (RCQPFVQLVFRSLLAPFLVK(COCH2)H; thioether 2-20) [compound 344] |
| B (0.5 or more and less than 0.7) | 356 (ACWLRHIYQGHKAPFLIWSTK(COCH2)S; thioether 2-21) [compound 356] |
| B (0.5 or more and less than 0.7) | 302 (HCSYERLQMHGHEAPFRVK(COCH2)V; thioether 2-19 (inferred)) [compound 302] |
| C (0.1 or more and less than 0.5) | 270 (QCYVQLYVWGHPAPFYWDK(COCH2)T; thioether 2-19 (inferred)) [compound 270] |
| B (0.5 or more and less than 0.7) | 283 (KCSYERLQFHGHEAPFRVK(COCH2)V; thioether 2-19 (inferred)) [compound 283] |
| C (0.1 or more and less than 0.5) | 253 (ICWTQLVLDGLYAPFLHK(COCH2)S; thioether 2-18 (inferred)) [compound 253] |
| C (0.1 or more and less than 0.5) | 359 (WCPWGDIHVVPFHK(COCH2)V; thioether 2-14) [compound 359] |
| A (0.7 or more) | 294 (HCSYERLQFHGHEAPFRVK(COCH2)K; thioether 2-19 (inferred)) [compound 294] |
| A (0.7 or more) | 303 (HCSYERLQFMGHEAPFRVK(COCH2)V; thioether 2-19 (inferred)) [compound 303] |

Second part, the substance before the results:

| Substance | Evaluation result of binding affinity to FGFR |
| --- | --- |
| 136 (HCSYELLQFHGHEAPFRVK(COCH2)V; thioether 2-19 (inferred)) [compound 136] | C (0.1 or more and less than 0.5) |
| 84 (HCLYERLQFHGHEAPFRVKV; not fully specified; Description of Artificial Sequence: Cyclic peptide) [compound 84] | A (0.7 or more) |
| 56 (ACSYERLQFHGHEAPFRVK(COCH2)V; thioether 2-19 (inferred)) [compound 56] | A (0.7 or more) |
| 244 (NCWGWAYPIPFRK(COCH2)V; thioether 2-13 (inferred)) [compound 244] | C (0.1 or more and less than 0.5) |
| 175 (HCSYERLQFRGHEAPFRVK(COCH2)V; thioether 2-19 (inferred)) [compound 175] | A (0.7 or more) |
| 74 (WCSYERLQFHGHEAPFRVK(COCH2)V; thioether 2-19 (inferred)) [compound 74] | A (0.7 or more) |
| 221 (HCSYERLQFHGHEAPFRVK(COCH2)E; thioether 2-19 (inferred)) [compound 221] | A (0.7 or more) |
| 225 (HCTWERLIFLGHIAPFWVK(COCH2)R; thioether 2-19 (inferred)) [compound 225] | C (0.1 or more and less than 0.5) |
| 86 (HCVYERLQFHGHEAPFRVKV; not fully specified; Description of Artificial Sequence: Cyclic peptide) [compound 86] | A (0.7 or more) |
| 58 (HCSYARLQFHGHEAPFRVK(COCH2)V; thioether 2-19 (inferred)) [compound 58] | B (0.5 or more and less than 0.7) |
| 194 (HCSYERLQFHGHEAPFFVK(COCH2)V; thioether 2-19 via Ac) [compound 194] | A (0.7 or more) |
| 147 (HCSYERLIFHGHEAPFRVK(COCH2)V; thioether 2-19 (inferred)) [compound 147] | A (0.7 or more) |
| 112 (HCSYERLQFHGWEAPFRVK(COCH2)V; thioether 2-19 (inferred)) [compound 112] | B (0.5 or more and less than 0.7) |
| 78 (TCSYERLQFHGHEAPFRVKV; not fully specified; Description of Artificial Sequence: Cyclic peptide) [compound 78] | A (0.7 or more) |
| 102 (HCSSERLQFHGHEAPFRVK(COCH2)V; thioether 2-19 (inferred)) [compound 102] | C (0.1 or more and less than 0.5) |
| 217 (HCSYERLQFHGHEAPFRVK(COCH2)Q; thioether 2-19 via Ac; not fully specified) [compound 217] | A (0.7 or more) |

| Substance | Evaluation result of binding affinity to FGFR |
| --- | --- |
| 159 (HCSYERLQIHGHEAPFRVK(COCH2)V; thioether 2-19 (inferred)) [compound 159] | C (0.1 or more and less than 0.5) |
| 41 (TCFVQLWFVDKPAPFLVK(COCH2)T; thioether 2-18 (inferred)) [compound 41] | B (0.5 or more and less than 0.7) |
| 252 (LCRVVLNGWIAPFWTIK(COCH2)E; thioether 2-17 (inferred)) [compound 252] | B (0.5 or more and less than 0.7) |
| 184 (HCSYERLQFHGHNAPFRVK(COCH2)V; thioether 2-19 via Ac) [compound 184] | A (0.7 or more) |
| 188 (HCSYERLQFHGHDAPFRVK(COCH2)V; thioether 2-19 via Ac) [compound 188] | A (0.7 or more) |
| 125 (HCSYFRLQFHGHEAPFRVK(COCH2)V; thioether 2-19 (inferred)) [compound 125] | C (0.1 or more and less than 0.5) |
| 88 (HCYYERLQFHGHEAPFRVKV; not fully specified; Description of Artificial Sequence: Cyclic peptide) [compound 88] | A (0.7 or more) |
| 242 (HK(COCH2)TWERLIFLGHIAPFWVCS; thioether 2-19 (inferred)) [compound 242] | A (0.7 or more) |
| 191 (HCSYERLQFHGHEAPFLVK(COCH2)V; thioether 2-19 via Ac) [compound 191] | A (0.7 or more) |
| 211 (HCSYERLQFHGHEAPFRVK(COCH2)L; thioether 2-19 via Ac; not fully specified) [compound 211] | A (0.7 or more) |
| 163 (HCSYERLQFGGHEAPFRVK(COCH2)V; thioether 2-19 (inferred)) [compound 163] | C (0.1 or more and less than 0.5) |
| 181 (HCSYERLQFHGHFAPFRVK(COCH2)V; thioether 2-19 via Ac) [compound 181] | A (0.7 or more) |
| 140 (HCSYETLQFHGHEAPFRVK(COCH2)V; thioether 2-19 (inferred)) [compound 140] | C (0.1 or more and less than 0.5) |
| 179 (HCSYERLQFHGHIAPFRVK(COCH2)V; thioether 2-19 (inferred)) [compound 179] | A (0.7 or more) |
| 155 (HCSYERLEFHGHEAPFRVK(COCH2)V; thioether 2-19 (inferred)) [compound 155] | A (0.7 or more) |
| 195 (HCSYERLQFHGHEAPFYVK(COCH2)V; thioether 2-19 via Ac) [compound 195] | A (0.7 or more) |
